We go through 18 compounds from ChEMBL document CHEMBL1629538 (J Med Chem, 2010).

The target in series [1] is T1, Nociceptin receptor (Mus musculus, UniProt P35377). The experiment in a line: Agonist activity at NOR in mouse Neuro-2a cells assessed as stimulation of ERK phosphorylation after 35 mins post dose by Alphascreen Surefire assay. (Alpha assays give light when donor and acceptor beads are brought close together.)
A short description of series [2]: Cytotoxicity in human erythrocytes assessed as induction of hemolysis at 100 uM. It counts as cell-based. The note with it: erythrocyte.
A short description of series [3]: Half life in human serum. It counts as ADME, cell-free.
The target of series [4] is T1, Nociceptin receptor. The experiment in a line: Antagonist activity at NOR in mouse Neuro-2a cells assessed as inhibition of nociceptin-induced ERK phosphorylation administered for 15 mins before nociceptin challenge by Alphascreen Surefire assay. Format: functional, cell-based.
The target of series [5] is T1, Nociceptin receptor. The experiment in a line: Antagonist activity at NOR in mouse Neuro-2a cells assessed as inhibition of nociceptin-induced ERK phosphorylation administered for 15 mins before nociceptin challenge by competitive inhibition assay. It counts as functional, cell-based. The following applies: read-out: pA2 (converted).
The target of series [6] is Nociceptin receptor (Mus musculus) (UniProt P35377). The experiment in a line: Antagonist activity at NOR in mouse Neuro-2a cells assessed as inhibition of nociceptin-induced ERK phosphorylation at 100 nM administered for 15 mins before nociceptin challenge by Alphascreen Surefire assay. Format: functional, cell-based.
Series [7] shares this target. Kind of series: Agonist activity at NOR in mouse Neuro-2a cells assessed as stimulation of ERK phosphorylation at 1 uM after 35 mins post dose by Alphascreen Surefire assay.
Series [8] shares this target. The experiment in a line: Agonist activity at NOR in mouse Neuro-2a cells assessed as stimulation of ERK phosphorylation after 35 mins post dose by Alphascreen Surefire assay relative to control.

The source made the active and inactive calls. Bridge positions count the residues as written; N and C are the ends. Peptide text beside a SMILES is read from it. * marks the point of attachment. Bz = O=C(c1ccccc1)*

Usually EC50 stands for the midpoint of the concentration-response curve. What is called half-life is the time needed for the level to fall by half in the phase considered. High values mean slow decline, low ones rapid decline. In general, Emax refers to the maximal effect, on the per cent scale that the assay sets. As usually defined, the pIC50 is −log10 of the IC50, conventionally taken in molar units.

T1 sequence (P35377 whole entry): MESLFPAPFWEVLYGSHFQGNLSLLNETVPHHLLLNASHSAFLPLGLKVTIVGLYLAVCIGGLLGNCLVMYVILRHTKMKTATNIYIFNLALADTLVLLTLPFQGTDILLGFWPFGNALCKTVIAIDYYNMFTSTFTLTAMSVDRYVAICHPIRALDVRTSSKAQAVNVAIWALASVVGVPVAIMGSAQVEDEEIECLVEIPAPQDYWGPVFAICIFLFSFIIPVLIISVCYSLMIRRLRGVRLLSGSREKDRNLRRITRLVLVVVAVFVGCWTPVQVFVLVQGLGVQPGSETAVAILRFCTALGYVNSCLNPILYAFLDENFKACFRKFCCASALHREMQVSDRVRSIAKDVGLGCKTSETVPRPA
Chain of Nociceptin receptor (Mus musculus) (P35377 whole entry): as above

For the compound `C[C@@H](O)[C@H](NC(=O)[C@H](Cc1ccccc1)NC(=O)CNC(=O)CNC(=O)[C@@H](N)Cc1ccccc1)C(=O)NCC(=O)N[C@H]1CCCCNC(=O)C[C@@H](C(N)=O)NC(=O)[C@H](CCCCN)NC(=O)[C@H](CCCN=C(N)N)NC(=O)[C@@H]2CC(=O)NCCCC[C@@H](CC(=O)[C@H](CCCCN)NC(=O)[C@H](CCCN=C(N)N)NC1=O)C(=O)N2`, at Nociceptin receptor [1], the EC50 is 14 nM.
Take `C[C@@H]1NC(=O)[C@@H](NC(=O)[C@H](CCCCN)NC(=O)[C@H](CCCN=C(N)N)NC(=O)[C@@H]2CC(=O)NCCCC[C@H](NC(=O)CNC(=O)[C@@H](NC(=O)[C@H](Cc3ccccc3)NC(=O)CNC(=O)CNC(=O)[C@@H](N)Cc3ccccc3)[C@@H](C)O)C(=O)N[C@@H](CCCN=C(N)N)C(=O)N[C@@H](CCCCN)C(=O)N[C@@H](CO)C(=O)N2)CCCCNC(=O)C[C@@H](C(N)=O)NC(=O)[C@H](CCC(N)=O)NC(=O)[C@H](CC(N)=O)NC1=O`: the Activity entry in series [2] is recorded as “Non-toxic”. The same compound came in with a half-life in series [3] above 6 h.
Turning to `C[C@@H](O)[C@H](NC(=O)[C@H](Cc1ccc(F)cc1)NC(=O)CNC(=O)CNC(=O)CNC(=O)c1ccccc1)C(=O)NCC(=O)N[C@H]1CCCCNC(=O)C[C@@H](C(=O)N[C@@H](CCCN=C(N)N)C(=O)N[C@@H](CCCCN)C(=O)N[C@H]2CCCCNC(=O)C[C@@H](C(N)=O)NC(=O)[C@H](CCC(N)=O)NC(=O)[C@H](CC(N)=O)NC(=O)[C@H](CCCCN)NC2=O)NC(=O)[C@H](CO)NC(=O)[C@H](CCCCN)NC(=O)[C@H](CCCN=C(N)N)NC1=O`, at Nociceptin receptor [4] (read-out: IC50), the IC50 was 7.5 nM. Besides, the Kb on Nociceptin receptor [5] was 1.95 nM.
With `CC(C)C[C@@H]1NC(=O)[C@H](CCCCN)NC(=O)[C@H](CCCN=C(N)N)NC(=O)[C@@H](NC(=O)[C@@H]2CC(=O)NCCCC[C@H](NC(=O)[C@@H](NC(=O)[C@H](Cc3ccccc3)NC(=O)CNC(=O)CNC(=O)CNC(=O)c3ccccc3)[C@@H](C)O)C(=O)N[C@@H](C)C(=O)N[C@@H](CCCN=C(N)N)C(=O)N[C@@H](CCCCN)C(=O)N2)CCCCNC(=O)C[C@@H](C(N)=O)NC1=O` (Bz-GGGFTKARKDKRKLD-NH2; lactam 6-10, 11-15), the IC50 on Nociceptin receptor [4] (read-out: pIC50 (converted)) was above 100 nM.
With `C[C@@H](O)[C@H](NC(=O)[C@H](Cc1ccc(F)cc1)NC(=O)CNC(=O)CNC(=O)[C@@H](N)Cc1ccccc1)C(=O)NCC(=O)N[C@H]1CCCCNC(=O)C[C@@H](C(=O)N[C@@H](CCCN=C(N)N)C(=O)N[C@@H](CCCCN)C(=O)N[C@H]2CCCCNC(=O)C[C@@H](C(N)=O)NC(=O)[C@H](CCC(N)=O)NC(=O)[C@H](CC(N)=O)NC(=O)[C@H](CCCCN)NC2=O)NC(=O)[C@H](CO)NC(=O)[C@H](CCCCN)NC(=O)[C@H](CCCN=C(N)N)NC1=O`, the EC50 on Nociceptin receptor [1] and at Nociceptin receptor [1] (neuro-2a) was 0.04 nM throughout.
For the compound `CC(=O)N[C@H](C(=O)N[C@H]1CCCCNC(=O)C[C@@H](C(=O)N[C@H]2CCCCNC(=O)C[C@@H](C(N)=O)NC(=O)[C@H](CC(C)C)NC(=O)[C@H](CCCCN)NC(=O)[C@H](CCCNC(=N)N)NC2=O)NC(=O)[C@H](CCCCN)NC(=O)[C@H](CCCNC(=N)N)NC(=O)[C@H](C)NC1=O)[C@@H](C)O` (Ac-TKARKDKRKLD-NH2; lactam 2-6, 7-11), the inhibition entry in series [6] is “inactive”.
For the compound `C[C@@H](O)[C@H](NC(=O)[C@H](Cc1ccc(F)cc1)NC(=O)CNC(=O)CNC(=O)CNC(=O)c1ccccc1)C(=O)NCC(=O)N[C@H]1CCCCNC(=O)C[C@@H](C(=O)N[C@@H](CCCNC(=N)N)C(=O)N[C@@H](CCCCN)C(=O)N[C@H]2CCCCNC(=O)C[C@@H](C(N)=O)NC(=O)[C@H](CCC(N)=O)NC(=O)[C@H](CC(N)=O)NC(=O)[C@H](CCCCN)NC2=O)NC(=O)[C@H](CO)NC(=O)[C@H](CCCCN)NC(=O)[C@H](CCCNC(=N)N)NC1=O`, the outcome in series [7] was inactive.
Consider `C[C@@H](O)[C@H](NC(=O)[C@H](Cc1ccccc1)NC(=O)CNC(=O)CNC(=O)CNC(=O)c1ccccc1)C(=O)NCC(=O)N[C@H]1CCCCNC(=O)C[C@@H](C(=O)N[C@@H](CCCN=C(N)N)C(=O)N[C@@H](CCCCN)C(=O)N[C@H]2CCCCNC(=O)C[C@@H](C(N)=O)NC(=O)[C@H](CCC(N)=O)NC(=O)[C@H](CC(N)=O)NC(=O)[C@H](CCCCN)NC2=O)NC(=O)[C@H](CO)NC(=O)[C@H](CCCCN)NC(=O)[C@H](CCCN=C(N)N)NC1=O` (Bz-GGGFTGKRKSDRKKKNQD-NH2; lactam 7-11, 14-18), for which the IC50 at Nociceptin receptor [4] (read-out: IC50) came to 12 nM.
Take `CC(C)C[C@H](NC(=O)[C@H](CCCCN)NC(=O)[C@H](CCCN=C(N)N)NC(=O)[C@H](C)NC(=O)[C@H](CO)NC(=O)[C@H](CCCCN)NC(=O)[C@H](CCCN=C(N)N)NC(=O)[C@H](C)NC(=O)CNC(=O)[C@@H](NC(=O)[C@H](Cc1ccccc1)NC(=O)CNC(=O)CNC(=O)[C@@H](N)Cc1ccccc1)[C@@H](C)O)C(=O)N[C@@H](C)C(=O)N[C@@H](CC(N)=O)C(=O)N[C@@H](CCC(N)=O)C(=O)O` [NOCICEPTIN]: the Activity entry in series [2] is “Non-toxic”. Moreover, the half-life in series [3] was 1 h.
In the case of `C[C@@H](O)[C@H](NC(=O)[C@H](Cc1ccccc1)NC(=O)CNC(=O)CNC(=O)[C@@H](N)Cc1ccccc1)C(=O)NCC(=O)N[C@H]1CCCCNC(=O)C[C@@H](C(=O)N[C@@H](CCCN=C(N)N)C(=O)N[C@@H](CCCCN)C(N)=O)NC(=O)[C@H](CO)NC(=O)[C@H](CCCCN)NC(=O)[C@H](CCCN=C(N)N)NC1=O` (H-FGGFTGKRKSDRK-NH2; lactam 7-11), the EC50 on Nociceptin receptor [1] worked out at 30 nM.
Turning to `C[C@H](NC(=O)CNC(=O)[C@@H](NC(=O)[C@H](Cc1ccccc1)NC(=O)CNC(=O)CNC(=O)[C@@H](N)Cc1ccccc1)[C@@H](C)O)C(=O)N[C@@H](CCCNC(=N)N)C(=O)N[C@@H](CCCCN)C(=O)N[C@@H](CO)C(=O)N[C@@H](C)C(=O)N[C@@H](CCCNC(=N)N)C(=O)N[C@@H](CCCCN)C(N)=O`, in series [8], the Emax came to 90%.
Turning to `CC(=O)N[C@H](C(=O)N[C@H]1CCCCNC(=O)C[C@@H](C(=O)N[C@H]2CCCCNC(=O)C[C@@H](C(N)=O)NC(=O)[C@H](CC(C)C)NC(=O)[C@H](CCCCN)NC(=O)[C@H](CCCN=C(N)N)NC2=O)NC(=O)[C@H](CCCCN)NC(=O)[C@H](CCCN=C(N)N)NC(=O)[C@H](C)NC1=O)[C@@H](C)O` (Ac-TKARKDKRKLD-NH2; lactam 2-6, 7-11), at Nociceptin receptor [4] (read-out: pIC50 (converted)), the IC50 is above 100 nM.
With `C[C@@H](O)[C@H](NC(=O)[C@H](Cc1ccccc1)NC(=O)CNC(=O)CNC(=O)[C@@H](N)Cc1ccccc1)C(=O)NCC(=O)N[C@H]1CCCCNC(=O)C[C@@H](C(N)=O)NC(=O)[C@H](CCCCN)NC(=O)[C@H](CCCNC(=N)N)NC(=O)[C@@H]2CC(=O)NCCCC[C@@H](CC(=O)[C@H](CCCCN)NC(=O)[C@H](CCCNC(=N)N)NC1=O)C(=O)N2`, the Emax in series [8] was found to be 92%.
As to `CC(C)C[C@H](NC(=O)[C@H](CCCCN)NC(=O)[C@H](CCCN=C(N)N)NC(=O)[C@H](C)NC(=O)[C@H](CO)NC(=O)[C@H](CCCCN)NC(=O)[C@H](CCCN=C(N)N)NC(=O)[C@H](C)NC(=O)CNC(=O)[C@@H](NC(=O)[C@H](Cc1ccc(F)cc1)NC(=O)CNC(=O)CNC(=O)[C@@H](N)Cc1ccccc1)[C@@H](C)O)C(=O)N[C@@H](CCCCN)C(=O)N[C@@H](CC(N)=O)C(=O)N[C@@H](CCC(N)=O)C(N)=O`, on Nociceptin receptor [1], the EC50 was 0.36 nM.
Regarding `CC(C)C[C@H](NC(=O)[C@H](CCCCN)NC(=O)[C@H](CCCN=C(N)N)NC(=O)[C@H](C)NC(=O)[C@H](CO)NC(=O)[C@H](CCCCN)NC(=O)[C@H](CCCN=C(N)N)NC(=O)[C@H](C)NC(=O)CNC(=O)[C@@H](NC(=O)[C@H](Cc1ccc(F)cc1)NC(=O)CNC(=O)CNC(=O)CNCc1ccccc1)[C@@H](C)O)C(=O)N[C@@H](CCCCN)C(=O)N[C@@H](CC(N)=O)C(=O)N[C@@H](CCC(N)=O)C(N)=O`, the pIC50 on Nociceptin receptor [4] (neuro-2a) is on record as 7.49.
With `CC(C)C[C@@H]1NC(=O)[C@H](CCCCN)NC(=O)[C@H](CCCNC(=N)N)NC(=O)[C@@H](NC(=O)[C@@H]2CC(=O)NCCCC[C@H](NC(=O)[C@@H](NC(=O)[C@H](Cc3ccccc3)NC(=O)CNC(=O)CNC(=O)CNC(=O)c3ccccc3)[C@@H](C)O)C(=O)N[C@@H](C)C(=O)N[C@@H](CCCNC(=N)N)C(=O)N[C@@H](CCCCN)C(=O)N2)CCCCNC(=O)C[C@@H](C(N)=O)NC1=O` (Bz-GGGFTKARKDKRKLD-NH2; lactam 6-10, 11-15), in series [6], the inhibition result was “inactive”.
As for `CC(C)C[C@H](NC(=O)[C@H](CCCCN)NC(=O)[C@H](CCCNC(=N)N)NC(=O)[C@H](C)NC(=O)[C@H](CO)NC(=O)[C@H](CCCCN)NC(=O)[C@H](CCCNC(=N)N)NC(=O)[C@H](C)NC(=O)CNC(=O)[C@@H](NC(=O)[C@H](Cc1ccc(F)cc1)NC(=O)CNC(=O)CNC(=O)CNC(=O)c1ccccc1)[C@@H](C)O)C(=O)N[C@@H](CCCCN)C(=O)N[C@@H](CC(N)=O)C(=O)N[C@@H](CCC(N)=O)C(N)=O`, in series [7], the outcome was inactive.
Take `C[C@@H](O)[C@H](NC(=O)[C@H](Cc1ccccc1)NC(=O)CNC(=O)CNC(=O)[C@@H](N)Cc1ccccc1)C(=O)NCC(=O)N[C@H]1CCCCNC(=O)C[C@@H](C(=O)N[C@@H](CCCNC(=N)N)C(=O)N[C@@H](CCCCN)C(N)=O)NC(=O)[C@H](CO)NC(=O)[C@H](CCCCN)NC(=O)[C@H](CCCNC(=N)N)NC1=O` (H-FGGFTGKRKSDRK-NH2; lactam 7-11): in series [8], the Emax was found to be 80%.
